We go through 27 compounds from patent publication US4013794A, “O-alkyl-S-alkyl-O-phenyl phosphates and insecticidal and acaricidal method of use” (priority 1973, dated 1977).

Data set [1] relates to warm-blooded animals. The settings on record: prior-art compounds; cited from earlier work.
The test system of data set [2] is two-spotted spider mite (Tetranychus urticae). As to the kind of experiment: Tetranychus test (resistant). It is filed as in vivo. To be noted: 48 h, after 2 days, read-out: Degree of destruction in % after 2 days; for mortality at 0.01 % strength: 0.01 % active compound concentration; for mortality at 0.1 % strength: 0.1 % active compound concentration. As to the method: Solvent: 3 parts by weight of acetone
Emulsifier: 1 part by weight of alkylaryl polyglycol ether
To produce a suitable preparation of active compound, 1 part by weight of the active compound was mixed with the stated amount of solvent and the stated amount of emulsifier and the concentrate was diluted with water to the desired concentration.
These bean plants were heavily infested with the two-spotted spider mite (Tetranychus urticae) in all stages of development.
After the specified periods of time, the effectiveness of the preparation of active compounds was determined by counting the dead mites. The degree of destruction thus obtained is expressed as a percentage: 100% means that all the spider mites were killed, whereas 0% means that none of the spider mites were killed.

Data set [3] can be described thus: Toxicity test (peroral), albino rat. To be noted: in vivo, po, evaluation after 7 days, read-out: LD50 values (in mg/kg of body weight). As to the method: Test animal: Albino rat (Rattus norvegicus)
To produce a suitable preparation of active compound, 3 parts by weight of active compound were mixed with 2.8 parts by weight of highly dispersible silica and 4.2 parts by weight of talc. Suspensions which contained, in 1 ml of liquid, the amount of active compound to be applied per 100 g of animal weight, were prepared from the above active-compound concentrate, with a little added powdered vegetable gum, by grinding with water. Dosing was effected volumetrically after weighing the test animals. A steel, knob-ended probe was used for oral administration. The evaluation was carried out in each case after the end of the above-mentioned time interval, calculated from the administration of the active compound.
The LD50 values (dose of active compound at which 50% of the treated animals were killed) were determined in the usual manner from the mortality figures of the doses, which were varied in geometrical progression.

Data set [4] relates to fly larvae (Lucilia cuprina res.). As to the kind of experiment: Test with parasitic fly larvae. Format: in vivo. To be noted: after 24 hours, read-out: Degree of destruction in %. The method, then:
Solvent: 35 parts by weight of ethylene polyglycol monomethyl ether
Emulsifier: 35 parts by weight of nonylphenol polyglycol ether.
To produce a suitable preparation of active compound, 30 parts by weight of the active substance in question were mixed with the stated amount of solvent which contained the above-mentioned proportion of emulsifier and the concentrate thus obtained was diluted with water to the desired concentration.
About 20 fly larvae (Lucilia cuprina) were introduced into a test tube which contained approximately 2 ml of horse muscle. 0.5 ml of the preparation of active compound was applied to this horse meat. After 24 hours, the degree of destruction was determined in %. 100% means that all the larvae had been killed and 0% means that no larvae had been killed.

Data set [5] deals with caterpillars of the diamond-back moth (Plutella maculipennis). As to the kind of experiment: Plutella Test. Format: in vivo. The settings on record: 72 h, after 3 days, read-out: Degree of destruction in % after 3 days; for mortality at 0.004 % strength: 0.004 % active compound; for mortality at 0.02 % strength: 0.02 % active compound; for mortality at 0.1 % strength: 0.1 % active compound; for mortality at 0.0008 % strength: 0.0008 % active compound. The method, then: (§1) Solvent: 3 parts by weight Acetone
(§2) Emulsifier: 1 part by weight Alkylaryl polyglycol ether
(§3) To produce a suitable preparation of active compound, 1 part by weight of the active compound is mixed with the stated amount of solvent and the stated amount of emulsifier and the concentrate is diluted with water to the desired concentration.
Cabbage leaves (Brassica oleracea) are sprayed with the preparation of the active compound until dew moist and are then infested with caterpillars of the diamond-back moth (Plutella maculipennis).
After the specified periods of time, the degree of destruction is determined as a percentage: 100 % means that all the caterpillars are killed whereas 0 % means that none of the caterpillars are killed.

Data set [6] concerns larvae of mustard beetles (Phaedon cochleariae). As to the kind of experiment: Phaedon-Larvae-Test. It is filed as in vivo. To be noted: in Brassica, 72 h, after 3 days, read-out: Degree of destruction in % after 3 days; for mortality at 0.004 % strength: 0.004 % active compound; for mortality at 0.02 % strength: 0.02 % active compound; for mortality at 0.1 % strength: 0.1 % active compound. As to the method: as §1, §2
To produce a suitable preparation of the particular active compound, 1 part by weight of such active compound is mixed with the stated amount of solvent and the stated amount of emulsifier, and the resulting concentrate is diluted with water to the desired final concentration.
Cabbage leaves (Brassica oleracea) are sprayed with the preparation of the given active compound until dripping wet and then infested with the larvae of mustard beetles (Phaedon cochleariae).
After specified periods of time, the degree of destruction is determined as a percentage: 100 % means that all the beetle larvae are killed, 0 % means that none of the beetle larvae are killed. The active compounds, the concentrations used, the evaluation time and the results obtained can be seen from the following Table 5: […]

In data set [7] the test system is peach aphids (Myzus persicae). As to the kind of experiment: Myzus Test (contact action). Format: in vivo. The settings on record: 24 h, after 1 day, read-out: Degree of destruction in % after 1 day; for mortality at 0.02 % strength: 0.02 % active compound; for mortality at 0.1 % strength: 0.1 % active compound. As to the method:
as §1, §2, §3
Cabbage plants (Brassica oleracea) which have been heavily infested with peach aphids (Myzus persicae) are sprayed with the preparation of the active compound until dripping wet.
After the specified periods to time, the degree of destruction is determined as a percentage: 100 % means that all the aphids are killed whereas 0 % means that none of the aphids are killed.

The structures appear in SMILES notation.

With `CCOP(=S)(OCC)Oc1ccc(S(=O)(=O)CCl)cc1` [Compound A, O,O-diethyl-O-(4-chloromethylsulfonylphenyl)-thionophosphoric acid ester], in data set [1], the “toxicity towards warm-blooded animals” value was “high toxicity”.

For `CCOP(=S)(OCC)Oc1ccc(S(=O)(=O)CCl)cc1` [drawing 6, reference compound], in data set [2], the mortality at 0.01 % strength was determined as 0% and the mortality at 0.1 % strength worked out at 50%.

Regarding `CCCSP(=S)(OCC)Oc1ccc(S(=O)(=O)CCl)cc1Cl` (stereo not drawn) [drawing 7], in data set [2], the mortality at 0.01 % strength stood at 60% and the mortality at 0.1 % strength was 100%.

Turning to `CCOP(=S)(OCC)Oc1ccc(S(=O)(=O)CCl)cc1` [drawing 8, reference compound], the LD50 at 168 h in data set [3] was in the range of 2.5 to 5 mg/kg.

In the case of `CCCSP(=S)(OCC)Oc1ccc(S(C)(=O)=O)cc1Cl` (stereo not drawn) [drawing 9], in data set [3], the LD50 at 168 h was 50 to 100 mg/kg.

Turning to `CCCSP(=S)(OCC)Oc1ccc(S(C)(=O)=O)cc1Br` (stereo not drawn) [drawing 10], in data set [3], the LD50 at 168 h was 50 to 100 mg/kg.

In the case of `CCCSP(=S)(OCC)Oc1ccc(S(=O)(=O)CCl)cc1` (stereo not drawn) [drawing 11], the LD50 at 168 h in data set [3] was about 250 mg/kg.

Regarding `CCCSP(=S)(OCC)Oc1ccc(S(=O)(=O)CCl)cc1Cl` (stereo not drawn) [drawing 12], the LD50 at 168 h in data set [3] fell in the range of 100 to 250 mg/kg.

Consider `CCCSP(=S)(OCC)Oc1ccc(SC(F)C(=O)OCC)cc1` (stereo not drawn) [drawing 13], for which, in data set [3], the LD50 at 168 h was 100 to 250 mg/kg.

Turning to `CCCSP(=S)(OCC)Oc1ccc(S(=O)(=O)CCl)cc1` (stereo not drawn) [drawing 14], in data set [4], the mortality at 1 ppm was found to be 0%, the mortality at 10 ppm worked out at 100%, the mortality at 30 ppm came out at 100% and the mortality at 100 ppm stood at 100%.

In the case of `CCCSP(=S)(OCC)Oc1ccc(S(C)(=O)=O)cc1Cl` (stereo not drawn) [drawing 15], in data set [4], the mortality at 1 ppm amounted to 0%, the mortality at 10 ppm was determined as 100%, the mortality at 30 ppm is 100% and the mortality at 100 ppm is 100%. Moreover, in data set [4] (3 ppm), the mortality at 3 ppm stood at 100%.

As for `CCCSP(=S)(OCC)Oc1ccc(SC(F)C(=O)OCC)cc1` (stereo not drawn) [drawing 16], in data set [4], the mortality at 10 ppm stood at 0%, the mortality at 30 ppm was over 50% and the mortality at 100 ppm came out at 100%.

On to `CCOP(=S)(Oc1ccc(S(C)(=O)=O)cc1)SC` (stereo not drawn) [drawing 17, reference compound], for which, in data set [5], the mortality at 0.004 % strength worked out at 0%, the mortality at 0.02 % strength is 85% and the mortality at 0.1 % strength was 100%.

Regarding `CCCSP(=S)(OCC)Oc1ccc(S(C)(=O)=O)cc1` (stereo not drawn) [drawing 18], in data set [5], the mortality at 0.004 % strength came to 100%, the mortality at 0.02 % strength was 100% and the mortality at 0.1 % strength amounted to 100%.

`CCCSP(=S)(OCC)Oc1ccc(S(=O)(=O)CCl)cc1` (stereo not drawn) [drawing 19]: in data set [5], the mortality at 0.004 % strength is 100%, the mortality at 0.02 % strength worked out at 100% and the mortality at 0.1 % strength came out at 100%.

As for `CCCSP(=S)(OCC)Oc1ccc(S(C)(=O)=O)cc1Cl` (stereo not drawn) [drawing 20], in data set [5], the mortality at 0.0008 % strength is 100%, the mortality at 0.004 % strength stood at 100%, the mortality at 0.02 % strength was 100% and the mortality at 0.1 % strength is 100%.

In the case of `CCCSP(=S)(OCC)Oc1ccc(Cl)cc1Cl` (stereo not drawn) [drawing 21], in data set [5], the mortality at 0.0008 % strength worked out at 0%, the mortality at 0.004 % strength worked out at 100%, the mortality at 0.02 % strength was 100% and the mortality at 0.1 % strength is 100%.

`CCCSP(=S)(OCC)Oc1ccc(S(C)(=O)=O)cc1Br` (stereo not drawn) [drawing 22]: in data set [5], the mortality at 0.0008 % strength came to 90%, the mortality at 0.004 % strength amounted to 100%, the mortality at 0.02 % strength turned out to be 100% and the mortality at 0.1 % strength was 100%.

Consider `CCCSP(=S)(OCC)Oc1ccc(Cl)cc1Cl` (stereo not drawn) [drawing 23, reference compound], for which, in data set [6], the mortality at 0.004 % strength stood at 20%, the mortality at 0.02 % strength was found to be 100% and the mortality at 0.1 % strength was 100%.

Take `CCOP(=S)(Oc1ccc(S(C)(=O)=O)cc1)SC` (stereo not drawn) [drawing 24]: in data set [6], the mortality at 0.004 % strength stood at 15%, the mortality at 0.02 % strength worked out at 100% and the mortality at 0.1 % strength was determined as 100%.

As to `CCCSP(=S)(OCC)Oc1ccc(S(C)(=O)=O)cc1` (stereo not drawn) [drawing 25], in data set [6], the mortality at 0.004 % strength turned out to be 100%, the mortality at 0.02 % strength is 100% and the mortality at 0.1 % strength came out at 100%.

`CCCSP(=S)(OCC)Oc1ccc(S(C)(=O)=O)cc1Br` (stereo not drawn) [drawing 26]: in data set [6], the mortality at 0.004 % strength stood at 100%, the mortality at 0.02 % strength worked out at 100% and the mortality at 0.1 % strength worked out at 100%.

As to `CCOP(=S)(Oc1ccc(S(C)(=O)=O)cc1)SC` (stereo not drawn) [drawing 27, reference compound], in data set [7], the mortality at 0.02 % strength turned out to be 0% and the mortality at 0.1 % strength stood at 35%.

As to `CCCSP(=S)(OCC)Oc1ccc(S(C)(=O)=O)cc1` (stereo not drawn) [drawing 28], in data set [7], the mortality at 0.02 % strength is 60% and the mortality at 0.1 % strength came to 100%.

For `CCCSP(=S)(OCC)Oc1ccc(S(C)(=O)=O)cc1Cl` (stereo not drawn) [drawing 29], in data set [7], the mortality at 0.02 % strength amounted to 90% and the mortality at 0.1 % strength was 100%.

As for `CCCSP(=S)(OCC)Oc1ccc(S(=O)(=O)CCl)cc1` (stereo not drawn) [drawing 30], in data set [7], the mortality at 0.02 % strength turned out to be 70% and the mortality at 0.1 % strength worked out at 100%.

Turning to `CCCSP(=S)(OCC)Oc1ccc(S(=O)(=O)CCl)cc1Cl` (stereo not drawn) [drawing 31], in data set [7], the mortality at 0.02 % strength came out at 55% and the mortality at 0.1 % strength was 100%.
